Measured values from patent US7718764B2, “Biologically active peptide [sequence] derivatives” (CMS Peptides Patent Holding Company Limited, priority 2004, dated 2010).
Marks after values point to notes of the source that are not given here.

Tests used:
[1] = test system: S180 sarcoma cells; test: Growth of KM mice-transplanted S180 sarcoma cells in vivo; design: unit not given here; conditions: for Sarcoma volume: V=(1/6)πABC, saline 1.20 ± 0.28
Method: S180 sarcoma cells were transplanted intraperitoneally into KM mice for 6-8 days and the ascites aseptically collected. The cell concentration was adjusted to 1×10^7 per ml with 10% FBS RPMI-1640, and 0.2 ml cell suspension was injected through the armpit into each KM mice for developing the sarcoma bearing mice model. […] Intraperitoneal injection of test substances started on the day immediately after tumor transplantation and continued once per day for 20 consecutive days.
On the day after the last test substance administration, the sarcomas were removed from the mice and weighed. The diameters of each sarcoma on the three planes (A, B, C) were measured by a vernier caliper. The volume of the sarcoma was calculated by the formula: V=(⅙)πABC.

[2] = test system: mice NK cell; test: Mice NK cell activity in vivo (i.p. dosing 20 days, spleen effector cells vs YAC-1 target cells, MTT); design: species or system BALB/c mice; conditions: for Effect on mice NK cell activity in vivo (enhancement) / Effect on mice NK cell activity in vivo (suppression): at suitable dosage, vs saline control P<0.05
Method: Animals were randomized into two peptide groups (200 μg/kg/day and 50 μg/kg/day), Cyclosporine A group (10 mg/kg/day), and saline group (0.5 ml/day). Each group contained 10 mice, in which half were female and half were male. All test substances were dissolved in 0.5 ml saline and administered intraperitoneally once per day for 20 days. T-lymphocyte transformation and NK cell activity were examined on the day immediately following the last injection. YAC-1 target cells were brought to log phase and adjusted to a density of 1×10^5/ml. Mice spleen cells prepared in section 2.2.2 above were adjusted to a density of 4×10^6/ml and used as effector cells. The cell suspensions were inoculated onto 96 wells cell culture plates as follows: Effector cell wells: 100 μl spleen cell suspension+100 μl RPMI-1640 Assay wells: 100 μl spleen cell suspension+100 μl YAC-1 cell suspension Target cell wells: 100 μl YAC-1 cell suspension+100 μl RPMI-1640 Three assay wells and three effector cell wells were set up for each animal, and 12 target cell wells were set up per cell culture plate. The plates were incubated at 37° C., 5% CO2 for 4 hours, then MTT was added and the plates were read at OD 570 nm referenced at 630 nm with ELISA reader. NK cell activity (%)=1−[(assay wells OD−effector cell wells OD)/target cell wells OD]×100%

[3] = test system: mice T-lymphocyte; test: Mice T-lymphocyte transformation in vivo (i.p. dosing 20 days, spleen cells + ConA, MTT, stimulation index); design: species or system BALB/c mice; conditions: for Effect on mice T-lymphocyte transformation in vivo: at suitable dosages, vs saline control P<0.05
Method: Animals were randomized into two peptide groups (200 μg/kg/day and 50 μg/kg/day), Cyclosporine A group (10 mg/kg/day), and saline group (0.5 ml/day). Each group contained 10 mice, in which half were female and half were male. All test substances were dissolved in 0.5 ml saline and administered intraperitoneally once per day for 20 days. T-lymphocyte transformation and NK cell activity were examined on the day immediately following the last injection. The day after the last test substance administration, the mice were sacrificed by cervical dislocation. The spleens were isolated aseptically and manually dispersed in 10% FBS RPMI-1640 solution using an injection needle. The dispersed cell suspension was further sieved through a 100 gauge 150 μm diameter stainless steel sieve and adjusted to 4×10^6/ml. The cell suspensions were inoculated onto a 96 wells cell culture plate, 100 μl/well with the following design. Assay wells: 100 μl cell suspension+100 μl ConA Control wells: 100 μl cell suspension+100 μl RPMI-1640 Four assay and four control wells were set up for each animal. The plates were incubated at 37° C., 5% CO2 for 68 hours. MTT was then added and the plates read at OD 570 nm referenced at 630 nm with ELISA reader. Stimulation Index SI (%)=(assay well OD/control well OD)×100%.

[4] = Table 12, 250 μg/kg/day, saline 1.87 ± 0.52
[5] = Table 12, 500 μg/kg/day, saline 1.87 ± 0.52
[6] = Table 9, 50 μg/kg/day i.p. 20 days, saline 55.3 ± 6.1
[7] = Table 11, 10 μg/kg/day i.p. 20 days, saline 5.07 ± 5.46
[8] = Table 11, 50 μg/kg/day i.p. 20 days, saline 5.07 ± 5.46
[9] = Table 8, 200 μg/kg/day i.p. 20 days, saline 76.0 ± 4.3
[10] = Table 7, 50 μg/kg/d i.p. 20 days, saline 2.96 ± 0.61

Row | Compound | Sarcoma volume ([1]; Table 12, 250 μg/kg/day) | Sarcoma weight [1, 4] | Sarcoma volume ([1]; Table 12, 500 μg/kg/day) | Sarcoma weight [1, 5] | also measured
1 | APEEHPTLLTEAPLNPK [CMS-010.02] | 0.36 ± 0.40 | 0.68 ± 0.72 | 0.65 ± 0.67 | 0.97 ± 0.85 | –
2 | O=P1(N(CCCl)CCCl)NCCCO1 (centres unmarked) [Cyclophosphamide, reference compound] | – | – | – | – | Sarcoma volume ([1]; Table 12, 40 mg/kg/day): 0.76 ± 0.66; Sarcoma weight ([1]; Table 12, 40 mg/kg/day, saline 1.87 ± 0.52): 1.07 ± 0.80
3 | VAPEEHPT [CMS-010.20] | 0.88 ± 0.77 | 1.00 ± 0.76 | 0.54 ± 0.51 | 0.59 ± 0.46 | –
4 | LLTEAPLNPK [CMS-010.17] | 0.40 ± 0.24 | 0.65 ± 0.41 | 0.55 ± 0.34 | 0.91 ± 0.46 | –
5 | VAPEEHPTLLTEAP [CMS-010.08] | 0.20 ± 0.14*^@ | 0.38 ± 0.27*^@ | 1.01 ± 0.63 | 1.05 ± 0.64 | –
6 | HPTLLTEAPLNPK [CMS-010.11] | 0.63 ± 0.40 | 0.64 ± 0.31 | 0.95 ± 0.54 | 1.14 ± 0.74 | NK cell activity (%) [2, 6]: 63.5 ± 4.7 %; Effect on mice NK cell activity in vivo (enhancement) [2]: enhance
7 | PTLLTEAPLNPK [CMS-010.13] | 0.91 ± 0.59 | 0.92 ± 0.56 | 0.38 ± 0.23 | 0.73 ± 0.43 | NK cell activity (%) [2, 6]: 70.9 ± 17.5 %; Effect on mice NK cell activity in vivo (enhancement) [2]: enhance
8 | TLLTEAPLNPK [CMS-010.15] | 0.41 ± 0.37 | 0.45 ± 0.35*^@ | 0.63 ± 0.35 | 0.68 ± 0.36 | –
9 | VALLT [CMS-010.103] | – | – | – | – | Sarcoma weight [1, 7]: 1.72 ± 1.53; Sarcoma weight [1, 8]: 1.48 ± 1.44
10 | VAPEEHPTLL [CMS-010.16] | 0.61 ± 0.44 | 0.63 ± 0.47 | 0.92 ± 0.36 | 0.99 ± 0.42 | –
11 | PEEHPTLLTEAPLNPK [CMS-010.04] | 0.17 ± 0.12*^@ | 0.27 ± 0.19*^@ | 0.40 ± 0.28 | 0.62 ± 0.44 | SI ([3]; Table 6, 50 μg/kg/day i.p. 20 days, saline 2.24 ± 0.52): 1.56 ± 0.25; Effect on mice T-lymphocyte transformation in vivo [3]: suppress
12 | LNPK [CMS-010.28] | – | – | – | – | NK cell activity (%) [2, 9]: 70.3 ± 6.7 %; Effect on mice NK cell activity in vivo (suppression) [2]: suppress; SI ([3]; Table 4, 200 μg/kg/day i.p. 20 days, saline 3.63 ± 0.69): 2.70 ± 0.37; Effect on mice T-lymphocyte transformation in vivo [3]: suppress
13 | VAPEEHPTLLTEAPLN [CMS-010.05] | 0.23 ± 0.19*^@ | 0.56 ± 0.33 | 0.34 ± 0.22 | 0.47 ± 0.29*^@ | –
14 | EAPLNPK [CMS-010.23] | 0.21 ± 0.15*^@ | 0.27 ± 0.18^@ | – | – | –
15 | VAPEEHPTLLT [CMS-010.14] | 0.29 ± 0.21 | 0.44 ± 0.30*^@ | 0.56 ± 0.53 | 0.67 ± 0.70 | NK cell activity (%) [2, 6]: 75.3 ± 9.0 %; NK cell activity (%) ([2]; Table 9, 200 μg/kg/day i.p. 20 days, saline 55.3 ± 6.1): 43.1 ± 13.7 %; Effect on mice NK cell activity in vivo (enhancement) [2]: enhance; SI [3, 10]: 2.12 ± 0.51; Effect on mice T-lymphocyte transformation in vivo [3]: suppress
16 | NPK [CMS-010.31] | 0.25 ± 0.20*^@ | 0.27 ± 0.19*^@ | 0.43 ± 0.50 | 0.78 ± 0.89 | Sarcoma weight [1, 7]: 1.05 ± 1.28; Sarcoma weight [1, 8]: 1.20 ± 1.60
17 | APLNPK [CMS-010.24] | 0.36 ± 0.30 | 0.61 ± 0.39 | 0.62 ± 0.47 | 1.20 ± 0.79 | NK cell activity (%) ([2]; Table 8, 50 μg/kg/day i.p. 20 days, saline 76.0 ± 4.3): 56.0 ± 6.0 %; NK cell activity (%) [2, 9]: 69.0 ± 7.4 %; Effect on mice NK cell activity in vivo (suppression) [2]: suppress; SI ([3]; Table 4, 50 μg/kg/day i.p. 20 days, saline 3.63 ± 0.69): 2.40 ± 0.31; Effect on mice T-lymphocyte transformation in vivo [3]: suppress
18 | TEAPLNPK [CMS-010.21] | 0.44 ± 0.22 | 0.51 ± 0.29 | 0.44 ± 0.21 | 0.44 ± 0.22*^@ | –
19 | EHPTLLTEAPLNPK [CMS-010.09] | 0.37 ± 0.44 | 0.45 ± 0.38*^@ | 0.84 ± 0.84 | 0.85 ± 0.70 | –
20 | VAPE [CMS-010.29] | 1.02 ± 0.66 | 1.24 ± 0.72 | 0.40 ± 0.11 | 0.55 ± 0.41 | –
21 | VAPEEHPTLLTEAPLNP [CMS-010.03] | 0.31 ± 0.22 | 0.68 ± 0.46 | 0.27 ± 0.33*^@ | 0.33 ± 0.35*^@ | –
22 | VAPEEHPTLLTEAPL [CMS-010.07] | 0.24 ± 0.13*^@ | 0.32 ± 0.14*^@ | 0.37 ± 0.20 | 0.52 ± 0.25 | –
23 | VAPEEH [CMS-010.25] | 0.48 ± 0.37 | 0.65 ± 0.53 | 0.26 ± 0.21*^@ | 0.52 ± 0.38 | SI ([3]; Table 5, 200 μg/kg/day i.p. 20 days, saline 3.15 ± 0.83): 2.43 ± 0.69; Effect on mice T-lymphocyte transformation in vivo [3]: suppress
24 | COc1cccc2c1C(=O)c1c(O)c3c(c(O)c1C2=O)C[C@@](O)(C(=O)CO)C[C@@H]3O[C@H]1C[C@H](N)[C@H](O)[C@H](C)O1 [Adriamycin, reference compound] | – | – | – | – | Sarcoma weight ([1]; Table 11, 2 mg/kg/day i.p. 20 days, saline 5.07 ± 5.46): 1.52 ± 1.75
25 | VAPEE [CMS-010.27] | 0.58 ± 0.58 | 0.78 ± 0.68 | 0.51 ± 0.33 | 1.05 ± 0.86 | –
26 | VAPEEHPTLLTE [CMS-010.12] | – | – | – | – | SI [3, 10]: 2.12 ± 0.42; Effect on mice T-lymphocyte transformation in vivo [3]: suppress
27 | VAPEEHPTL [CMS-010.18] | 0.27 ± 0.20*^@ | 0.44 ± 0.31*^@ | 0.58 ± 0.42 | 0.59 ± 0.48 | –
28 | LTEAPLNPK [CMS-010.19] | 0.46 ± 0.58 | 0.41 ± 0.45*^@ | 0.40 ± 0.42 | 0.68 ± 0.68 | –
29 | VAPEEHP [CMS-010.22] | 0.24 ± 0.08*^@ | 0.28 ± 0.12*^@ | 0.73 ± 0.87 | 0.85 ± 0.73 | –
